From US12697326B2, “Methods of treating hepatic encephalopathy” (SALIX PHARMACEUTICALS, INC., priority 2008, dated 2026)

Legend:
[1] = system: critical flicker frequency in subjects with HE; experiment: Critical flicker frequency (CFF) test, change from baseline, first study; format: in vivo, human
Protocol: The critical flicker frequency (CFF) was assessed for each subject using a specialized CFF instrument. The CFF is the frequency at which the subject observes a constant light transition to a flickering light and is measured in Hertz (Hz). CFF is an objective assessment of mental status.
The CFF was measured on a continuous scale and was the mean of 8 separate fusion-to-flicker transition tests performed in rapid succession.
Mean values and mean changes from baseline in blood ammonia concentration and critical flicker frequency values were collected. Analyses of blood ammonia concentrations and critical flicker frequency values were based upon quantitative values (not qualitative grades). Treatment differences for mean change from baseline in these parameters was estimated using a mixed effects model with fixed effects for time and baseline value.
A critical flicker frequency (CFF) assessment, a recognized quantitative measure of CNS dysfunction, was an efficacy endpoint in the first study. CFF tests utilize the correlation between cerebral processing of oscillatory visual stimuli and CNS impairment due to increased HE severity.^10,11,12,13 This test identifies a frequency at which a flickering light is perceived as steady. A decline in this frequency has been associated with increasing severity of HE. Likewise, elevation in blood ammonia, another endpoint in the first study, is a quantitative assessment associated with the CNS effects underlying overt HE.

[2] = system: Epworth Sleepiness Scale in subjects with HE; experiment: Epworth Sleepiness Scale total score; format: in vivo, human; conditions: 550 mg BID
Text: Total scores for the Epworth Sleepiness Scale were computed and summarized at baseline and Days 28, 56, 84, 112, 140 and 168 using descriptive statistics. Treatment differences for mean change in total scores from baseline to Days 28, 56, 84, 112, 140 and 168 were summarized and compared between treatments.

[3] = system: all-cause hospitalization in subjects with HE; experiment: All-cause hospitalization, first study; format: in vivo, human
[4] = system: Staphylococcus, Streptococcus, Enterococcus, and Enterobacteriaceae; conditions: cited from earlier work
[5] = 550 mg BID, Baseline to Day 140

CO[C@H]1/C=C/O[C@@]2(C)Oc3c(C)c(O)c4c(O)c(c5c(nc6cc(C)ccn65)c4c3C2=O)NC(=O)/C(C)=C\C=C\[C@H](C)[C@H](O)[C@@H](C)[C@@H](O)[C@@H](C)[C@H](OC(C)=O)[C@@H]1C [Rifaximin]
Change from Baseline in Critical Flicker Frequency Test, Max [1, 5]: 12 Hz | Change from Baseline in Critical Flicker Frequency Test, Mean [1, 5]: 1.4 Hz | Change from Baseline in Critical Flicker Frequency Test, Median [1, 5]: 1.5 Hz | Change from Baseline in Critical Flicker Frequency Test, Min [1, 5]: −15 Hz | Change from Baseline in Critical Flicker Frequency Test, Max ([1]; 550 mg BID, Baseline to EOT): 11 Hz | Change from Baseline in Critical Flicker Frequency Test, Mean ([1]; 550 mg BID, Baseline to EOT): 0.9 Hz | Change from Baseline in Critical Flicker Frequency Test, Median ([1]; 550 mg BID, Baseline to EOT): 0.1 Hz | Change from Baseline in Critical Flicker Frequency Test, Min ([1]; 550 mg BID, Baseline to EOT): −14 Hz | Critical Flicker Frequency Test, Max ([1]; 550 mg BID, Day 140): 49 Hz | Critical Flicker Frequency Test, Min ([1]; 550 mg BID, Day 140): 27 Hz | Critical Flicker Frequency Test, Max ([1]; 550 mg BID, EOT): 49 Hz | Critical Flicker Frequency Test, Median ([1]; 550 mg BID, EOT): 37.8 Hz | Critical Flicker Frequency Test, Min ([1]; 550 mg BID, EOT): 25 Hz | Mean changes (±SD) in CFF results ([1]; first study, rifaximin group, baseline to end of treatment): 0.945 (±4.75) | Change from Baseline for Epworth Sleepiness Total Score, Max ([2]; Baseline to Day 28): 7 | Change from Baseline for Epworth Sleepiness Total Score, Mean ([2]; Baseline to Day 28): −0.2 | Change from Baseline for Epworth Sleepiness Total Score, Median ([2]; Baseline to Day 28): 0.0 | Change from Baseline for Epworth Sleepiness Total Score, Min ([2]; Baseline to Day 28): −14 | Epworth Sleepiness Total Score, Max ([2]; Day 28): 23 | Epworth Sleepiness Total Score, Mean ([2]; Day 28): 10.0 | Epworth Sleepiness Total Score, Median ([2]; Day 28): 9.0 | Epworth Sleepiness Total Score, Min ([2]; Day 28): 0 | reduction in risk of all-cause hospitalization compared with placebo [3]: 30% | subjects with all-cause hospitalization (of 140) ([3]; rifaximin group): 46 | all-cause hospitalization rate ([3]; rifaximin group, normalized for exposure): 0.90 events/PEY | in vitro activity against species of Staphylococcus, Streptococcus, Enterococcus, and Enterobacteriaceae [4]: active
